Measured values taken from publication PMC5725799, “Comparative binding properties of the tau PET tracers THK5117, THK5351, PBB3, and T807 in postmortem Alzheimer brains” (Alzheimer's Research & Therapy, 2017).
Values joined by “and” are separate entries in the source; they are usually repeats but may differ in a detail not shown here. Equal values may be shown once.

How the values were obtained:
tau [1] = target: tau (Homo sapiens, UniProt P10636); test: Competition binding assay with ^3H-THK5351 in postmortem hippocampus brain homogenates; settings: vs ^3H-THK5351 1.5 nM, AD hippocampus homogenate; read-out: Ki2 (high-affinity site)
Description: Postmortem brain tissues from three patients with AD and three healthy control subjects were used for the in vitro binding assays. All the brain tissue, which came from the Netherlands Brain Bank, had been homogenized in PBS containing a protease/phosphatase inhibitor (see Table 1).
After 2-h incubation at room temperature, the binding assay was terminated by filtration through glass fiber filters presoaked for at least 3 h in 0.3% polyethylenimine. To do so, the filters were rinsed and filtered three times using cold binding buffer, and then the radiation on the filter was quantified using a Beckman Coulter scintillation counter. The data for the regional binding distribution studies were analyzed using Prism version 7.0 software for Mac (GraphPad Software Inc., La Jolla, CA, USA), and two-way analysis of variance with multiple comparisons was performed.

[2] = target: T1, monoamine oxidase B (MAO-B) (Homo sapiens, UniProt P27338); test: Competition binding with ^3H-deprenyl in hippocampus and putamen brain homogenates (off-target binding); settings: vs ^3H-deprenyl 10 nM, two AD cases
T1 construct: postmortem brain homogenates from the hippocampus and putamen (0.2 mg/ml tissue) of two patients with AD; tissue Netherlands Brain Bank; host or cells: postmortem human AD hippocampus and putamen homogenate
T1 sequence (P27338 1-520): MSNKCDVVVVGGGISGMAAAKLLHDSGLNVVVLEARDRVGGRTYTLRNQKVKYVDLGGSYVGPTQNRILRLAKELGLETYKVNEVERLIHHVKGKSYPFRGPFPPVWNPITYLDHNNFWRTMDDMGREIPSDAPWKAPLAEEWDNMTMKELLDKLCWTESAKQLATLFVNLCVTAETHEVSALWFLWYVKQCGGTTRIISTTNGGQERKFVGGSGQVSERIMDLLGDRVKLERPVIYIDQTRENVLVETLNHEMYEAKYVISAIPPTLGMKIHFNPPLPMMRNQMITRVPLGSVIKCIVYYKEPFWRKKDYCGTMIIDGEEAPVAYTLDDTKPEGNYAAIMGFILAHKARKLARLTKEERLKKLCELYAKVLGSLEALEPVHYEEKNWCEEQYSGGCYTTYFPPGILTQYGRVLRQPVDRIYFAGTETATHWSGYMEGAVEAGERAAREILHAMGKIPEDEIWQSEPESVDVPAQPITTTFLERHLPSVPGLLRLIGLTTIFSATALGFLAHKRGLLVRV
Description: Competition binding studies using postmortem brain homogenates from the hippocampus and putamen (0.2 mg/ml tissue) of two patients with AD were performed using ^3H-deprenyl (10 nM in Na-K phosphate buffer, pH 7.4) and increasing concentrations of unlabeled THK5117 (10^−14 to 10^−5 M) and T807 (10^−14 to 10^−5 M) to determine the off-target binding of the tau PET tracers. After 2-h incubation at room temperature, the binding assay was terminated by filtration through glass fiber filters presoaked for at least 3 h in 0.3% polyethylenimine. To do so, the filters were rinsed and filtered three times using cold binding buffer, and then the radiation on the filter was quantified using a Beckman Coulter scintillation counter. The data from all the binding studies were analyzed using Prism version 7.0 software.

tau [3] = test: ^3H-THK5351 competition autoradiography with unlabeled THK5351, T807 and deprenyl; type: binding, human; settings: cortical areas
Description: Six adjacent sections from AD1 (see Table 1) were used for competition autoradiography of unlabeled THK5351, T807, and deprenyl. After reaching room temperature, the frozen sections were preincubated for 10 minutes with PBS (pH 7.4) and then incubated for 1 h at room temperature with ^3H-THK5351 (1.5 nM) in addition to 10 μM unlabeled THK5351; 10 μM unlabeled deprenyl; 10 μM unlabeled T807; 10 μM unlabeled THK5351 and 10 μM unlabeled deprenyl; 10 μM unlabeled T807 and 10 μM unlabeled deprenyl. The sections were rinsed three times in cold buffer for 5 minutes, followed by a quick dip in cold distilled water. Nonspecific binding was determined using 10 μM unlabeled THK5351 or 10 μM unlabeled THK5117. […]
(§1) For all the autoradiography studies, the regions of interest were drawn manually on the autoradiogram using multigauge software and were used for the semiquantitative analyses. Photostimulated luminescence per square millimeter (PSL/mm^2) was transformed to picomoles per cubic millimeter using a transformation factor that took into account the resolution of the image, the pixel value for the concentration of ligand, and the thickness of the sections: (PSL/mm^2 value)/([pixel value per pmol] × [(resolution/1000)^2] × [cryosection thickness]/1000).

tau [4] = test: ^11C-THK5351 autoradiography and competition on large frozen AD brain sections; type: binding, human; design: Total Binding / NSP Binding: unit not given here
Description: Adjacent sections were used for autoradiography with ^11C-THK5351, ^11C-PBB3, and ^18F-T807. The frozen sections were allowed to reach room temperature, incubated for 30 minutes at room temperature with ^11C-THK5351 (0.4–0.56 nM; specific activity 356–532 GBq/μmol) or ^11C-PBB3 (0.25–0.34 nM; specific activity 442–794 GBq/μmol) or for 55 minutes at room temperature with ^18F-T807 (0.04 nM; specific activity 281 GBq/μmol). We used 10 μM unlabeled THK5351, 10 μM unlabeled PBB3, and 10 μM unlabeled T807 to determine the extent of nonspecific binding for each tracer. The sections were rinsed three times for 5 minutes each with cold binding buffer, followed by a quick dip in cold distilled water. The sections were dried and exposed for 1 h (for ^11C-THK5351 and ^11C-PBB3) or for 3 h (^18 F-T807) on a phosphor imaging plate and then read using the BAS-2500 phosphor imager.
as §1

[5] = AD1, Basal ganglia, vs Unlabelled T807
[6] = AD1, Basal ganglia, vs Unlabelled THK5351
[7] = AD1, Frontal cortex, vs Unlabelled T807
[8] = AD1, Frontal cortex, vs Unlabelled THK5351
[9] = AD1, Insula, vs Unlabelled T807
[10] = AD1, Insula, vs Unlabelled THK5351
[11] = AD1, Temporal cortex, vs Unlabelled T807
[12] = AD1, Temporal cortex, vs Unlabelled THK5351
[13] = AD2, Basal ganglia, vs Unlabelled T807
[14] = AD2, Basal ganglia, vs Unlabelled THK5351
[15] = AD2, Frontal cortex, vs Unlabelled T807
[16] = AD2, Frontal cortex, vs Unlabelled THK5351
[17] = AD2, Insula, vs Unlabelled T807
[18] = AD2, Insula, vs Unlabelled THK5351
[19] = AD2, Temporal cortex, vs Unlabelled T807
[20] = AD2, Temporal cortex, vs Unlabelled THK5351
[21] = AD3, Basal ganglia, vs Unlabelled T807
[22] = AD3, Basal ganglia, vs Unlabelled THK5351
[23] = AD3, Frontal cortex, vs Unlabelled T807
[24] = AD3, Frontal cortex, vs Unlabelled THK5351
[25] = AD3, Insula, vs Unlabelled T807
[26] = AD3, Insula, vs Unlabelled THK5351
[27] = AD3, Temporal cortex, vs Unlabelled T807
[28] = AD3, Temporal cortex, vs Unlabelled THK5351

Chain of tau (Homo sapiens, UniProt P10636) (P10636 623-695 limits assumed): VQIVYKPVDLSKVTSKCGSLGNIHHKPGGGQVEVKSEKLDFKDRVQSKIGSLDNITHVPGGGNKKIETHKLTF

## Fc1ccc(-c2ccc3c(c2)[nH]c2ccncc23)cn1 [T807]
Tau [1]
  Ki: 78 nM
[2]; hippocampus homogenate
  Ki: 227 nM and > 200 nM
[2]; putamen homogenate
  Ki: 135 nM and ~150 nM
Tau [3]
  ^3H-THK5351 binding displaced: 70–80%

## [11CH3]Nc1ccc(-c2ccc3cc(OC[C@H](O)CF)ccc3n2)cn1 [^11C-THK5351, (S)-1-fluoro-3-(2-(6-([^11C]methylamino)pyridin-3-yl)quinolin-6-yloxy)propan-2-ol]
Tau [4]; [5]
  % of specific binding: 41%
  NSP Binding: 10866
  Specific Binding: 7578
  Total Binding: 18444
Tau [4]; [6]
  % of specific binding: 40%
  NSP Binding: 7577
  Specific Binding: 5118
  Total Binding: 12694
Tau [4]; [7]
  % of specific binding: 24%
  NSP Binding: 15579
  Specific Binding: 4789
  Total Binding: 20368
Tau [4]; [8]
  % of specific binding: 40%
  NSP Binding: 8920
  Specific Binding: 5917
  Total Binding: 14837
Tau [4]; [9]
  % of specific binding: 25%
  NSP Binding: 13255
  Specific Binding: 4421
  Total Binding: 17677
Tau [4]; [10]
  % of specific binding: 33%
  NSP Binding: 8376
  Specific Binding: 4085
  Total Binding: 12461
Tau [4]; [11]
  % of specific binding: 14%
  NSP Binding: 14662
  Specific Binding: 2328
  Total Binding: 16990
Tau [4]; [12]
  % of specific binding: 29%
  NSP Binding: 8202
  Specific Binding: 3386
  Total Binding: 11587
Tau [4]; [13]
  % of specific binding: 38%
  NSP Binding: 11830
  Specific Binding: 7177
  Total Binding: 19008
Tau [4]; [14]
  % of specific binding: 68%
  NSP Binding: 6390
  Specific Binding: 13566
  Total Binding: 19956
Tau [4]; [15]
  % of specific binding: 18%
  NSP Binding: 14824
  Specific Binding: 3344
  Total Binding: 18167
Tau [4]; [16]
  % of specific binding: 69%
  NSP Binding: 6755
  Specific Binding: 15381
  Total Binding: 22136
Tau [4]; [17]
  % of specific binding: 28%
  NSP Binding: 13363
  Specific Binding: 5076
  Total Binding: 18439
Tau [4]; [18]
  % of specific binding: 59%
  NSP Binding: 6886
  Specific Binding: 9948
  Total Binding: 16834
Tau [4]; [19]
  % of specific binding: 39%
  NSP Binding: 13589
  Specific Binding: 8683
  Total Binding: 22271
Tau [4]; [20]
  % of specific binding: 59%
  NSP Binding: 6673
  Specific Binding: 9437
  Total Binding: 16110
Tau [4]; [21]
  % of specific binding: 47%
  NSP Binding: 10872
  Specific Binding: 9821
  Total Binding: 20693
Tau [4]; [22]
  % of specific binding: 38%
  NSP Binding: 6733
  Specific Binding: 4207
  Total Binding: 10939
Tau [4]; [23]
  % of specific binding: 38%
  NSP Binding: 14792
  Specific Binding: 8959
  Total Binding: 23751
Tau [4]; [24]
  % of specific binding: 48%
  NSP Binding: 7079
  Specific Binding: 6431
  Total Binding: 13509
Tau [4]; [25]
  % of specific binding: 29%
  NSP Binding: 13574
  Specific Binding: 5447
  Total Binding: 19021
Tau [4]; [26]
  % of specific binding: 37%
  NSP Binding: 6903
  Specific Binding: 3972
  Total Binding: 10875
Tau [4]; [27]
  % of specific binding: 34%
  NSP Binding: 12673
  Specific Binding: 6479
  Total Binding: 19153
Tau [4]; [28]
  % of specific binding: 36%
  NSP Binding: 6717
  Specific Binding: 3813
  Total Binding: 10529
